This note sets out measurements from PubChem BioAssay (NCI).

Test systems include 786-0 renal; CAKI-1 renal; HCC-2998 colon; HT29 colon; MOLT-4 leukemia; OVCAR-4 ovarian; RPMI-8226 leukemia; SNB-19 CNS; MDA-MB-231 breast.
Holding throughout (experiment): NCI-60 cell line screen, 48 h

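Method: 48-hour compound exposure of cells in 96-well plates, five concentrations, linear interpolation of endpoints. At the GI50, growth is halved. At the TGI there is no net growth.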

In the case of `COc1cc(/C=C\c2ccc(Br)cc2)cc(OC)c1OC`, the TGI with 786-0 renal worked out at 13.7 µM; with CAKI-1 renal, 18.5 µM; with HCC-2998 colon, 26.8 µM; with HT29 colon it was 15 µM; with MOLT-4 leukemia it was 0.326 µM; with OVCAR-4 ovarian, 64.1 µM. Also, the results for the TGI in the assay on RPMI-8226 leukemia and in the assay with SNB-19 CNS were 27.6 µM and > 100 µM, respectively. The GI50 in the assay with HCC-2998 colon was 0.0192 µM.

In the case of `COc1ccc(-c2ccc(-c3ccc(C(=N)N)cn3)o2)cc1Cl`, the GI50 in the assay on 786-0 renal was 1.86 µM; in the assay on CAKI-1 renal it was 6.57 µM; in the assay on HCC-2998 colon, 1.88 µM; in the assay with HT29 colon it was 1.87 µM; in the assay with MDA-MB-231 breast, 1.81 µM; in the assay with OVCAR-4 ovarian, 2.58 µM. Besides, in the assay with SNB-19 CNS, the GI50 is 1.79 µM. The TGI in the assay with 786-0 renal came out at 3.4 µM; in the assay with CAKI-1 renal, 19.8 µM; in the assay with HCC-2998 colon it was 3.38 µM; in the assay on HT29 colon, 3.78 µM; with MDA-MB-231 breast it was 3.41 µM; in the assay on OVCAR-4 ovarian, 7.75 µM. In the assay on SNB-19 CNS, this compound displayed a TGI of 3.4 µM.

As to `COc1ccc2c(c1)c(-c1ccc(-c3cn(C)c4ccc(OC)cc34)[nH]1)cn2C`, the GI50 was 12.2 µM in the assay with 786-0 renal; 3.36 µM with CAKI-1 renal; 9.38 µM in the assay with HT29 colon; 4.13 µM with MOLT-4 leukemia; 1.94 µM in the assay with OVCAR-4 ovarian; 1.28 µM with RPMI-8226 leukemia. Also, the GI50 in the assay with SNB-19 CNS was 3.34 µM. Besides, the TGI in the assay with 786-0 renal is 36.1 µM; with CAKI-1 renal, 11.2 µM; in the assay with HT29 colon it was 42 µM; in the assay on MOLT-4 leukemia, 29.7 µM; with OVCAR-4 ovarian, 4.01 µM; with RPMI-8226 leukemia it was 3.38 µM. In the assay on SNB-19 CNS, this compound registered a TGI of 14.4 µM.

Regarding `C=C1CCCC2[C@](C)(CC3=C(O)C(=O)C=C(OC)C3=O)[C@@H](C)CC[C@]12C` (stereo partly specified), the TGI in the assay on 786-0 renal is 18.3 µM; with CAKI-1 renal it was 27.9 µM; in the assay with HT29 colon, 36.1 µM; with OVCAR-4 ovarian it was 78.2 µM; in the assay with RPMI-8226 leukemia, 40.2 µM.

Consider `O=C(N/C(=C\c1ccc(/C=C(\NC(=O)c2ccccc2)c2nc3ccccc3s2)cc1)c1nc2ccccc2s1)c1ccccc1`, for which the TGI amounted to 3.49 µM in the assay with 786-0 renal; 28 µM in the assay with CAKI-1 renal; 27.8 µM in the assay on HCC-2998 colon; 19.1 µM in the assay with HT29 colon; 26.7 µM in the assay on MOLT-4 leukemia; 19.6 µM in the assay with OVCAR-4 ovarian. Also, the TGI was determined as 37.3 µM in the assay with RPMI-8226 leukemia and 14.5 µM with SNB-19 CNS.

Take `N#Cc1ccc(Oc2cccc(Oc3ccccc3)c2)cc1C#N`: the GI50 in the assay with 786-0 renal, in the assay with CAKI-1 renal, in the assay on HCC-2998 colon and in the assay with HT29 colon was > 100 µM each time. In addition, the TGI with 786-0 renal, in the assay on CAKI-1 renal, in the assay on HCC-2998 colon, in the assay with HT29 colon, in the assay with MOLT-4 leukemia and in the assay with OVCAR-4 ovarian was > 100 µM each time. Further, the TGI in the assay with SNB-19 CNS was > 100 µM.

Take `CC1(C(=O)O)CCOc2ccccc21` (stereo unspecified): the TGI in the assay with 786-0 renal, in the assay on CAKI-1 renal, in the assay on HCC-2998 colon, in the assay on HT29 colon, in the assay on MOLT-4 leukemia and with OVCAR-4 ovarian was > 100 µM in each case. For the same compound, the TGI in the assay with RPMI-8226 leukemia and with SNB-19 CNS was > 100 µM throughout.

Take `COC12CCC(C(C(=O)c3ccccc3)=C1C(=O)c1ccccc1)C(O)C2` (stereo unspecified): the TGI with 786-0 renal, in the assay with CAKI-1 renal, in the assay on HCC-2998 colon, in the assay with HT29 colon, in the assay on MOLT-4 leukemia and with OVCAR-4 ovarian was > 100 µM throughout. Also, the TGI in the assay on RPMI-8226 leukemia and in the assay on SNB-19 CNS was > 100 µM each time.

As for `COc1nc2c(nc(N)n2C2OCC(O)C(O)C2O)c(=O)n1C` (stereo unspecified), the TGI in the assay on 786-0 renal, with CAKI-1 renal, in the assay with HCC-2998 colon, in the assay with HT29 colon, in the assay on MOLT-4 leukemia and in the assay on OVCAR-4 ovarian was > 100 µM each time. Further, in the assay on SNB-19 CNS, the TGI is > 100 µM.

`O=C1C(=O)N(c2nccs2)C(=O)C(=O)C1c1nc2ccccc2s1`: the TGI with 786-0 renal, in the assay with CAKI-1 renal, in the assay with HCC-2998 colon, in the assay on HT29 colon, in the assay with OVCAR-4 ovarian and with RPMI-8226 leukemia was > 100 µM throughout. Besides, in the assay with SNB-19 CNS, the TGI was > 100 µM.

Regarding `CC(=O)[O-].[Zn].c1ccc(/C(=N\Nc2ccccn2)c2ccccn2)cc1`, the GI50 in the assay with 786-0 renal is 0.366 µM; in the assay on HT29 colon it was 1.09 µM. For the same compound, the TGI in the assay on 786-0 renal was determined as 2.16 µM; in the assay with CAKI-1 renal it was 6.33 µM; in the assay on HCC-2998 colon, 2.07 µM; in the assay on HT29 colon, 4.13 µM; in the assay on MOLT-4 leukemia it was 0.227 µM; in the assay on OVCAR-4 ovarian, 18.1 µM. Besides, the figures for the TGI in the assay with RPMI-8226 leukemia and with SNB-19 CNS were 2.86 µM and 5.73 µM, respectively.

Consider `CCn1c(=O)c2ccccc2n2c(=O)c3cc4ccccc4cc3nc12`, for which the TGI with 786-0 renal, in the assay on CAKI-1 renal, in the assay with HCC-2998 colon, in the assay with HT29 colon, in the assay with MOLT-4 leukemia and in the assay with RPMI-8226 leukemia was > 100 µM throughout. The TGI with SNB-19 CNS is > 100 µM.

On to `CCOC(=O)C1=C(Nc2ccc(Br)cc2)OC/C1=N\NC(=O)c1ccccc1O`, for which the TGI with 786-0 renal was > 100 µM; with CAKI-1 renal it was > 71.1 µM; with HCC-2998 colon it was > 100 µM; with HT29 colon, > 100 µM; in the assay on MOLT-4 leukemia, 35.2 µM; in the assay with OVCAR-4 ovarian, > 100 µM. Besides, the TGI in the assay with RPMI-8226 leukemia is 49.4 µM; with SNB-19 CNS, > 100 µM.

For `S=c1sc2cscc2s1`, the TGI with 786-0 renal is 46.5 µM; with CAKI-1 renal it was 31.4 µM; in the assay with HCC-2998 colon it was 32.8 µM; with HT29 colon it was > 100 µM; in the assay on MOLT-4 leukemia, > 100 µM; in the assay on OVCAR-4 ovarian, 33 µM. In addition, the TGI in the assay with RPMI-8226 leukemia is > 100 µM; in the assay with SNB-19 CNS, 46 µM.

On to `Cc1ccccc1C(=O)Oc1ccc(OCc2ccccc2)cc1`, for which the TGI in the assay with 786-0 renal, in the assay with HCC-2998 colon, in the assay with HT29 colon, in the assay on MOLT-4 leukemia, with OVCAR-4 ovarian and in the assay on RPMI-8226 leukemia was > 100 µM throughout. Moreover, in the assay with SNB-19 CNS, the TGI is > 100 µM.
